Patent publication US20050019825A9, “Common ligand mimics: pseudothiohydantoins” (priority 2002, published 2005)
Like-named read-outs stand apart in the source and are kept apart here.

Experiments:
[1] = target: dihydrofolate reductase (DHFR) (UniProt P00374); test: DHFR kinetic assay, spectrophotometric oxidation of NADH (340 nm); format: biochemical
Method: For DHFR analysis, the compounds were screened using a kinetic protocol that spectrophotometrically evaluates oxidation of NADH.
Stock solutions of each of the reagents were prepared in the following concentrations. Dilutions of the stock solutions were prepared prior to running the assay in the concentrations indicated below. H2 folate was dissolved in DMSO to about 10 mM and then diluted with water to a concentration of 0.1 mM.
The DHFR reaction was monitored at 340 nm prior to and after addition of the inhibitor to detect background reaction with the inhibitor. Solutions of 100 μl of the inhibitors in DMSO were prepared to provide a final DMSO concentration of 5% of the total assay volume. These solutions were incubated for 6 minutes at 25° C. in a 992 μl of a solution containing 0.1 M Tris-HCl, pH 7.0, 150 mM KCl, 5 μM H2 folate, and 52 μM NADH. The oxidation reaction was then initiated with 8 μl of DHFR (0.047 mg/ml). After the enzyme was added, the solution was mixed for 20 seconds, and the reaction was run for 10 minutes. After a 50 second lag, the samples were read in a Cary spectrophotometer at 340 nm. Reading of the samples was continued until 300 seconds. Cuvette #1 always contained the control reaction (no inhibitor), and cuvette #2 always contained the positive control reaction in which Cibacron Blue at 3 μM was substituted for inhibitor to yield 50 to 70% inhibition. The substrate was kept at a level at least 10 times the Km.

[2] = target: T1, HMG CoA reductase (HMGCoAR) (UniProt P04035); test: HMGCoAR kinetic assay, spectrophotometric oxidation of NADPH (340 nm); format: biochemical; conditions: for IC50: common ligand mimics, Examples 23/24
T1 sequence (P04035 1-888): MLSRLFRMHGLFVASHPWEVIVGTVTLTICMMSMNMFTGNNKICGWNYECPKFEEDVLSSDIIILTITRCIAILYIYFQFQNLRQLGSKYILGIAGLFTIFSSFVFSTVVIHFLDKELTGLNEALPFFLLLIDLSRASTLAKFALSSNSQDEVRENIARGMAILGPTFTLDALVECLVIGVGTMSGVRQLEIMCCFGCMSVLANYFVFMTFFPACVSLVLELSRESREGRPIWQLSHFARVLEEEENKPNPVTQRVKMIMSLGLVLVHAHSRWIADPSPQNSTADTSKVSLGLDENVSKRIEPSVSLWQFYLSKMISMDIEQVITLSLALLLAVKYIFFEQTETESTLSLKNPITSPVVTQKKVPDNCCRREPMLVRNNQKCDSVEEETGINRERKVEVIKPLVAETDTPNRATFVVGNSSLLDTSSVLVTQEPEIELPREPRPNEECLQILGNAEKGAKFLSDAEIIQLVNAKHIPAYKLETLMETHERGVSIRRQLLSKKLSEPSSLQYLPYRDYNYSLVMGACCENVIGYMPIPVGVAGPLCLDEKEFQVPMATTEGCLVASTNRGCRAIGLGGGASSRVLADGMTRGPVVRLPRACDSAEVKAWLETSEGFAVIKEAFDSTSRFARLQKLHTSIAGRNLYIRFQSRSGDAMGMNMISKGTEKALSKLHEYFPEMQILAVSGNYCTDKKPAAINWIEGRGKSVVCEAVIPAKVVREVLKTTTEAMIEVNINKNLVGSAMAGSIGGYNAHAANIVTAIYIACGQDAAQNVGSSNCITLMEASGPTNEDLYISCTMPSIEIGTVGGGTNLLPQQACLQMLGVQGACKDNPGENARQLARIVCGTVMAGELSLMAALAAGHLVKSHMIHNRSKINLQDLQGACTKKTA
Method: For HMGCoAR analysis, the compounds were screened using a kinetic protocol that spectrophotometrically evaluates oxidation of NADPH.
Stock solutions of each of the reagents were prepared in the following concentrations. Dilutions of the stock solutions were prepared prior to running the assay in the concentrations indicated below. The enzyme was diluted in 1 M NaCl. To prepare the dilution buffer, 10 μl of HMGCoAR (1 mg/ml) was mixed with 133 μl of 3 M NaCl solution and 257 μl of 25 mM KH2PO4 buffer (pH 7.5; containing 50 mM NaCl, […] EDTA (ethylenediaminetetraacetic acid), and 5 mM DTT (dithiothreitol).
The HMGCoAR reaction was monitored at 340 nm prior to and after addition of the inhibitor to detect background reaction with the inhibitor. Solutions of 100 μM of the inhibitors in DMSO were prepared to provide a final DMSO concentration of 2% of the total assay volume. These solutions were incubated for 6 minutes at 25° C. in a 994 μl of a solution containing 25 mM KH2PO4, pH 7.5, 160 μM HMGCoA, 13 μM NADPH, 50 mM NaCl, 1 mM EDTA, and 5 mM DTT. The reaction was then initiated with 5 μl of HMGCoAR enzyme (1:40 dilution of 0.65 mg/ml). After the enzyme was added, the solution was mixed for 20 seconds, and the reaction was run for 10 minutes. After a 50 second lag, the samples were read in a Cary spectrophotometer at 340 nm. Reading of the samples was continued until 300 seconds. Cuvette #1 contained the control reaction (no inhibitor), and cuvette #2 contained the positive control reaction in which Cibacron Blue at 2.05 μM was substituted for inhibitor to yield 50 to 70% inhibition. The substrate was kept at a level at least 10 times the Km.

[3] = common ligand mimics, Examples 23/24; read-out: IC50 for DHFR
[4] = read-out: IC50 for DHFR; common ligand mimics, Examples 23/24

Sequence of dihydrofolate reductase (DHFR) (P00374 whole entry): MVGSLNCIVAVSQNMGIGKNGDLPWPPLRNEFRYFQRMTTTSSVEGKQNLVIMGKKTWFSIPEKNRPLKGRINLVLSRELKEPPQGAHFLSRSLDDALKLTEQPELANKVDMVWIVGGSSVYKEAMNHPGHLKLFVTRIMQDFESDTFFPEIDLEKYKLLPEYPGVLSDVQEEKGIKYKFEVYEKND

`N=C1NC(=O)C(=Cc2ccc(C(=O)O)cc2)S1` [4-(2-imino-4-oxo-thiazolidin-5-ylidenemethyl)-benzoic acid] was tested, and the IC50 [1, 3] was > 20 µM.

In the case of `COc1cc(O)ccc1C=C1SC(=N)NC1=O` [5-(4-hydroxy-2-methoxy-benzylidene)-2-imino-thiazolidin-4-one], the “inhibition of HMGCoAR (in words)” value ([2]; Example 24 (FIG. 6)) is reported as “no inhibition” and the IC50 [1, 3] is reported as > 100 µM.

For `COc1cc(C=C2SC(N)=NC2=O)ccc1O` [5-(4-hydroxy-3-methoxy-benzylidene)-2-imino-thiazolidin-4-one], the IC50 [2] was > 100 µM and the IC50 [1, 4] was > 100 µM.

With `N=C1NC(=O)C(=Cc2ccc(O)c([N+](=O)[O-])c2)S1` [5-(4-hydroxy-3-nitro-benzylidene)-2-imino-thiazolidin-4-one] the IC50 [2] was > 90 µM and the IC50 [1, 4] was > 75 µM.
